According to patent US10772909B2, “System and method for insulin-mimetic of cartilage, bone, or osteochondral repair and piezoelectric composite scaffold” (New Jersey Institute of Technology, priority 2016, dated 2020):

How the values were obtained:
collagen type II = assay: Collagen type II ELISA; type: cell-based, human; conditions: day 28
Method: (§1) Chondrogenesis Culture. Cryopreserved MSCs were thawed and expanded in GM until 70-80% confluent. Cells were trypsininzed and then seeded on 6 mm diameter scaffold disks at 1.76×10^5 cells/cm^2 and cultured for 28 days in GM, chondrogenic induction medium (CCM), or CCM without insulin, according to previously published methods. CCM consisted of DMEM high glucose containing 4 mM L-glutamine (Invitrogen, Grand Island, N.Y., USA), 0.1 μM dexamethasone (Sigma-Aldrich), 0.17 mM ascorbic acid-2-phosphate (Wako Chemicals, Richmond, Va., USA), 1% ITS+(6.25 µg/mL insulin, 6.25 µg/mL transferrin, 6.25 ng/mL selenous acid, 5.35 μg/ml linoleic acid and 1.25 mg of bovine serum albumin) Premix Culture Supplement (Corning, Corning, N.Y., USA), 1× antibiotic-antimycotic, 1 mM sodium pyruvate (Sigma-Aldrich), 0.35 mM proline (Sigma-Aldrich), and 10 ng/mL recombinant human transforming growth factor-beta3 (TGF-β3, ProSpec, Israel). CCM without insulin consisted of CCM where the 1% ITS+Premix Culture Supplement was substituted with 1% stock solution (6.25 μg/ml transferrin and 6.25 ng/ml selenous acid, 5.35 μg/ml lionleic acid (Sigma-Aldrich) and 1.25 mg of bovine serum albumin (Fisher Scientific). Na2WO4 was added to all media leading to final Na2WO4 concentrations of 0, 0.01, 0.1 and 1 mM. Samples were harvested and analyzed for sulfated glycosaminoglycans (sGAG), cell number and gene expression at day 14 and 28 and for collagen type II and immunostaining at day 28.
Collagen type II production was quantified by enzyme-linked immunosorbent assay (ELISA) using a collagen type II detection kit (Chondrex Inc. Redmond, Wash., USA). The ELISA was conducted following the manufacturer's instructions. Briefly, samples (n=4 per group) were harvested at day 28 and washed with PBS. Collagen was digested by adding pepsin solution (0.1 mg/ml in 0.05 M acetic acid) at 4 C° for two days with gentle mixing. The digested samples were centrifuged for 3 minutes and supernatants were collected. Pancreatic elastase was added to the samples and incubated overnight at 4° C. Supernatants were then collected. The ELISA plate which was coated with collagen type II was prepared as described by the manufacturer and the absorbance at 490 nm was measured using a microplate spectrophotometer (Emax, Molecular Devices). The collagen type II production was determined relative to the standard curve.

Human MSCs [1] = assay: Chondrogenesis culture: sGAG production (Blyscan); type: cell-based
Method: as §1
Production of sGAG and cell number were determined. Samples were digested using papain (Sigma-Aldrich, Mo., USA) buffer overnight at 65 C. ° following manufacturer's protocol. The sGAG assay is used to measure the total sulfated proteoglycan content using Blyscan sGAG Assay Kit (Biocolor, UK). Cell lysate of samples (n=4 per group) and color reagent were combined in transparent 96-well plate and the absorbance at 656 nm was measured using a microplate spectrophotometer (EMax, Molecular Devices, Melville, N.Y., USA). sGAG concentration was determined relative to chondroitin sulfate standard curve. PicoGreen® ds DNA assay (Life Technologies) was used to determine the cell number. MSCs of known cell number were used as standards. Standards were prepared by lysing the cells using papain buffer. The cell lysate of samples and standards (n=4 per group) was mixed with an equal volume of Pico Green reagent. Fluorescence intensity was measured with a microplate reader ((FLX800, Biotek Instruments, Vt., USA)) at 480 nm excitation and 520 nm emission. A standard curve of known cell number was used to determine the sample cell number. GAG production was normalized to cell number.

[2] = Sodium tungstate in the scaffold: cell and tissue growth, cytocompatibility; type: cell-based; conditions: 0.01-5 weight (wt.) % sodium tungstate in the scaffold
Human MSCs [3] = assay: MSC growth on PCL scaffolds in growth medium (PicoGreen ds DNA cell number); type: cell-based; conditions: GM; for cell number, change from days 4 to 7: p<0.05; for cell number compared to the other groups: days 7 and 11
Method: MSCs were cultured on the scaffolds in the presence of Na2WO4 (Na2WO4.2H2O, MW=329.85 g/mol; Sigma Aldrich) in the range of 0.01-50 mM to determine which concentrations supported cell growth. Before cell seeding, scaffolds were cut into 6 mm diameter disks using a biopsy punch (Integra Miltek, York, Pa.), sterilized in 100% ethanol for 20 minutes and were air dried overnight. Cryopreserved MSCs were thawed and expanded in tissue culture treated polystyrene flasks (Nunc, Thermo Fisher Scientific, Waltham, Mass., USA) in growth medium (GM) comprised of Dulbecco's Modified Eagle's Medium (DMEM, Invitrogen, Grand Island, N.Y., USA), 10% fetal bovine serum (Hyclone, Thermo Fisher Scientific) and 1% antibiotic-antimycotic (Invitrogen) at 37° C. and 5% CO2 until 70-80% confluent. Cells were trypsinized using 0.25% Trypsin-EDTA (Thermo Fisher Scientific), resuspended in GM and then seeded onto scaffolds at 3.5×10^4 cells/cm^2 and cultured for 11 days in GM alone or with Na2WO4. Na2WO4 was added to GM leading to final Na2WO4 concentrations of 0, 0.01, 0.1, 1, 10 and 50 mM. Samples (n=4) were harvested and analyzed at days 4, 7 and 11 for cell number using the PicoGreen® ds DNA assay (Life Technologies).
MSCs of known cell number were used as a standard. Standards and samples were prepared by lysing the cells using 0.1% Triton X-100 (Sigma-Aldrich, Mo., USA). The cell lysate of samples and standards (n=4 per group) was mixed with an equal volume of Pico Green dye, which binds to the double-stranded (ds) DNA. Fluorescence intensity was measured with a microplate reader ((FLX800, Biotek Instruments, Vt., USA)) at 480 nm excitation and 520 nm emission. A standard curve of known cell number was used to determine the sample cell number.

[4] = 1 mM Na2WO4, CCM without insulin, day 28

Compound: [Na+].[Na+].[O]=[W](=[O])([O-])[O-] [Na2WO4, sodium tungstate]
- collagen type II production vs all other groups (collagen type II; 0.01 mM Na2WO4, CCM, p<0.001): highest collagen type II
- collagen type II production vs 0 mM group (collagen type II; 0.01 mM Na2WO4, GM, p<0.05): significantly higher collagen type II
- collagen type II production vs 0 mM and 1 mM (collagen type II; 0.1 mM Na2WO4, CCM, p<0.001): significantly higher collagen type II production
- collagen type II production (collagen type II; 1 mM Na2WO4, CCM, p<0.001): lowest
- collagen type II production (collagen type II; CCM without insulin groups): not detected
- sGAG production, change between days 14 and 28 (Human MSCs [1]; 0.01 mM Na2WO4, CCM): significant increase in sGAG production
- sGAG production vs 0 mM group (Human MSCs [1]; 0.01 mM Na2WO4, CCM without insulin): higher than 0 mM group in CCM without insulin but not significantly
- sGAG production vs all other groups (Human MSCs [1]; 0.01 mM Na2WO4, CCM, day 28, p<0.005): higher sGAG production than all other groups
- normalized sGAG to cell number vs 0 and 1 mM groups (Human MSCs [1]; 0.01 mM Na2WO4, CCM, day 28, p<0.05): significantly higher
- sGAG production vs 0 mM group (Human MSCs [1]; 0.1 mM Na2WO4, CCM without insulin): higher than 0 mM group in CCM without insulin but not significantly
- sGAG production vs GM alone (Human MSCs [1]; 0.1 mM Na2WO4, GM, day 14): significantly higher
- normalized sGAG to cell number vs 0.01 mM (Human MSCs [1]; [4]): significantly lower normalized sGAG to cell number
- sGAG vs all other groups (Human MSCs [1]; [4]): significantly lower
- cell and tissue growth and cytocompatibility [2]: promoted excellent cell and tissue growth results and cytocompatibility results
- cell number, change from days 4 to 7 (Human MSCs [3]; 0.01 mM Na2WO4): significantly increased in cell numbers
- cell number, change from days 4 to 7 (Human MSCs [3]; 0.1 mM Na2WO4): significantly increased in cell numbers
- cell number compared to the other groups (Human MSCs [3]; 1 mM Na2WO4): significantly lower cell numbers
- cell number compared to the other groups (Human MSCs [3]; 10 mM Na2WO4): significantly lower cell numbers
- cell number compared to the other groups (Human MSCs [3]; 50 mM Na2WO4): significantly lower cell numbers
